According to PMC6557900 (Nature Communications, 2019):
Where two headings read alike, the source gives them in different places. One block for each compound: values may come before it. Where a SMILES comes first, the peptide text is derived from it. [ ]: non-standard residue; d: D form. pY = N[C@@H](Cc1ccc(OP(=O)(O)O)cc1)C(=O)O

What was measured:
[1] = biological target: T1, SOCS2-EloB-EloC ternary (SBC) complex (Homo sapiens, UniProt O14508+Q15369+Q15370); assay: Isothermal titration calorimetry (ITC), ligand titrated into SBC; assay type: binding
T1 construct: His6 (N, cleaved yes); made in house; host or cells: E. coli BL21(DE3)
Procedure: The ITC titration consisted of 0.4 μl initial injection (discarded during data analysis) followed by 19 of 2 μl injections at 120 s interval between injections. […] Binding data was subtracted from a control titration where peptide was titrated into buffer, and fitted using a one-set-of-site binding model to obtain dissociation constants, binding enthalpy (ΔH), and stoichiometry (N) using MicroCal ITC-ORIGIN Analysis Software 7.0 (Malvern).

[2] = biological target: T2, SBC with SOCS2 L106V (Homo sapiens, UniProt O14508+Q15369+Q15370, L106V); assay: SPR, SNP mutant SBC immobilized; assay type: binding; details: read-out: SPR dissociation constant KD
T2 construct: His6 (N, cleaved yes); made in house; host or cells: E. coli BL21(DE3)
Procedure: (§1) Protein expression was induced with isopropyl β-d-1-thiogalactopyranoside at 18 °C for 12 h. […] SBC was finally purified by size-exclusion chromatography on a Superdex 75 16/600 column (GE Healthcare) in 25 mM HEPES, pH 7.5, 250 mM NaCl and 10 mM DTT.
(§2) Biotinylated wild-type SBC and mutants were immobilized onto a chip surface and injected a series of seven concentrations (0.08, 0.25, 0.7, 2.2, 6.7, 20 and 60 μM) of peptide across the sensor surface for 60 s contact time and 120 sec dissociation time at 30 μl min^−1 flow rate. Data analysis was carried out using Biacore Evaluation Software (GE Healthcare). All data were double-referenced for reference surface and blank injection. The processed sensograms were fit to a steady-state affinity using a 1:1 binding model for KD estimation (raw data shown in Supplementary Figs. 10–15).

[3] = biological target: T3, SBC with SOCS2 R96L (Homo sapiens, UniProt O14508+Q15369+Q15370, R96L); assay: SPR, SNP mutant SBC immobilized; assay type: binding; details: for SPR KD: source data of Table 3, R96L
T3 construct: His6 (N, cleaved yes); made in house; host or cells: E. coli BL21(DE3)
Procedure: as §1, §2

[4] = biological target: T4, SBC with SOCS2 R96Q (Homo sapiens, UniProt O14508+Q15369+Q15370, R96Q); assay: SPR, SNP mutant SBC immobilized; assay type: binding; details: for SPR KD: source data of Table 3, R96Q
T4 construct: His6 (N, cleaved yes); made in house; host or cells: E. coli BL21(DE3)
Procedure: as §1, §2

[5] = biological target: T5, SBC with SOCS2 N94D (Homo sapiens, UniProt O14508+Q15369+Q15370, N94D); assay: SPR, SNP mutant SBC immobilized; assay type: binding; details: source data of Table 3, N94D
T5 construct: His6 (N, cleaved yes); made in house; host or cells: E. coli BL21(DE3)
Procedure: as §1, §2

[6] = biological target: T6, wild-type SBC (SOCS2-ElonginB-ElonginC) (Homo sapiens, UniProt O14508+Q15369+Q15370); assay: SPR direct binding, wild-type SBC immobilized on the chip; details: mean ± s.e.m., four independent experiments
T6 construct: His6 (N, cleaved yes); made in house; host or cells: E. coli BL21(DE3)
Procedure: as §2

[7] = biological target: SBC (SOCS2-ElonginB-ElonginC) (Homo sapiens, UniProt O14508+Q15369+Q15370); assay: 19F ligand-observed CPMG NMR displacement of spy molecule 3
Source text: In the ^19F NMR displacement assay, the fluorine signal of a purposely-designed reporter ligand (also referred to as spy molecule) was monitored as a mean to quantify the extent of the competition between the tested peptides and the spy molecule. A Carr-Purcell-Meiboom-Gill (CPMG) pulse sequence was applied to estimate the spin–spin relaxation time (T2) of the spy molecule in the absence and presence of protein[43]–[45]. By adding competitor to disrupt the protein-spy interaction, the binding affinity of a competitor can be calculated based on the degree of displacement of the spy[46],[47].
All NMR experiments were conducted using AV-500 MHz Bruker spectrometer equipped with a 5 mm CPQCI 1H/19F/13C/15N/D Z-GRD cryoprobe) at 298 K. Spectra were recorded using 80 scans of a CPMG pulse sequence that attenuates broad resonances. […] The transmitter frequency was placed close to the resonance of O1 = −35451 Hz (−75.3 ppm). […] All NMR data were processed and analyzed using TopSpin (Bruker).
The dissociation constant of peptides (Ki) was calculated by adapting the method described by Wang et al.[47] Briefly, peptides’ Ki values were obtained from the equation below:1 Ki=([P0]-[PI]-[PL])([I0]-[PI])/[PI] where [I0] and [P0] are the total concentrations of the competitor (peptide inhibitor) and protein, respectively, used in the experiment, while [PI] and [PL] are the free concentrations of protein–peptide and protein–spy complexes, which are unknown.
To determine [PL] the following equation was used:2 IF-II/IF-IP=[PL]/[PL0] where IF is the measured integral of the fluorine peak of the spy molecule free in solution; IP is the integral of the same signal in the presence of protein; II is the integral of the same signal in the presence of protein and competing peptide; and [PL0] is the concentration of protein-spy complex in the absence of competitor, which was calculated using the following equation:3 [PL0]=[P0]+[L0]+KD-([P0]+[L0]+KD)^2-4[P0][L0]/2 where [L0] is the total concentrations of spy molecule used in the experiment, and KD is the dissociation constant of the protein-spy complex (determined by ITC). To determine [PI] the following equation was used: 4 [PL]=[P0]+[L0]+KD-[PI]-([P0]+[L0]+KD-[PI])^2-4([P0]-[PI])[L0]/2 where [PL] was determined as described above (Equation 2).

[8] = read-out: SPR dissociation constant KD
[9] = Table 2, biotinylated wild-type SBC immobilized, peptide 0.08-60 μM, 20 mM HEPES pH7.5, 150 mM NaCl, 1 mM TCEP, 0.005% Tween20, 10 °C, steady-state 1:1 model, read-out: SPR KD

T3 sequence (O14508 32-198 R96L): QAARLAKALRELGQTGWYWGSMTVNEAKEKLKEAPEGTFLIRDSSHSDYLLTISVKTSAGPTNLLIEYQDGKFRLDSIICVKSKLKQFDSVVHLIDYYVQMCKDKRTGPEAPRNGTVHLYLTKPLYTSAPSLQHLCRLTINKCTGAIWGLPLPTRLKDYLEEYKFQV
T3 sequence (Q15370 1-104 partner limits assumed): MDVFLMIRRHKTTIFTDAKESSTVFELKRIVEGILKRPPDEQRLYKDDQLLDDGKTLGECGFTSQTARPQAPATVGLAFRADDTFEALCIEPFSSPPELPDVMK
T3 sequence (Q15369 17-112 partner limits assumed): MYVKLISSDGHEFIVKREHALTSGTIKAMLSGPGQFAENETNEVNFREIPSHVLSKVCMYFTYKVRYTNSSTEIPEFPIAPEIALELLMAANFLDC
T4 sequence (O14508 32-198 R96Q): as the sequence (O14508 32-198 R96L) above, with L65Q counted along it
T4 sequence (Q15370 1-104 partner limits assumed): as the sequence (Q15370 1-104 partner limits assumed) above
T4 sequence (Q15369 17-112 partner limits assumed): as the sequence (Q15369 17-112 partner limits assumed) above
T5 sequence (O14508 32-198 N94D): as the sequence (O14508 32-198 R96L) above, with N63D, L65R counted along it
T5 sequence (Q15370 1-104 partner limits assumed): as the sequence (Q15370 1-104 partner limits assumed) above
T5 sequence (Q15369 17-112 partner limits assumed): as the sequence (Q15369 17-112 partner limits assumed) above
Sequence of SBC (SOCS2-ElonginB-ElonginC) (O14508 32-198): as the sequence (O14508 32-198 R96L) above, with L65R counted along it
Sequence of SBC (SOCS2-ElonginB-ElonginC) (Q15370 1-104 partner limits assumed): as the sequence (Q15370 1-104 partner limits assumed) above
Sequence of SBC (SOCS2-ElonginB-ElonginC) (Q15369 17-112 partner limits assumed): as the sequence (Q15369 17-112 partner limits assumed) above
T6 sequence (O14508 32-198): as the sequence (O14508 32-198 R96L) above, with L65R counted along it
T6 sequence (Q15370 1-104 partner limits assumed): as the sequence (Q15370 1-104 partner limits assumed) above
T6 sequence (Q15369 17-112 partner limits assumed): as the sequence (Q15369 17-112 partner limits assumed) above
T2 sequence (O14508 32-198 L106V): as the sequence (O14508 32-198 R96L) above, with L65R, L75V counted along it
T2 sequence (Q15370 1-104 partner limits assumed): as the sequence (Q15370 1-104 partner limits assumed) above
T2 sequence (Q15369 17-112 partner limits assumed): as the sequence (Q15369 17-112 partner limits assumed) above
T1 sequence (O14508 32-198): as the sequence (O14508 32-198 R96L) above, with L65R counted along it
T1 sequence (Q15370 1-104 partner limits assumed): as the sequence (Q15370 1-104 partner limits assumed) above
T1 sequence (Q15369 17-112 partner limits assumed): as the sequence (Q15369 17-112 partner limits assumed) above

Kd [1]: 2.3 µM | Kd [2]: 8.9 ± 0.7 µM | Kd [3, 8]: > 60 µM | SPR KD ([3]; replicate 1): weak | SPR KD ([3]; replicate 2): weak | SPR KD ([3]; replicate 3): weak | SPR KD ([3]; replicate 4): weak | Kd [4, 8]: > 60 µM | SPR KD ([4]; replicate 1): nb | SPR KD ([4]; replicate 2): nb | SPR KD ([4]; replicate 3): nb | SPR KD ([4]; replicate 4): nb | SPR KD ([5]; replicate 1): weak | SPR KD ([5]; replicate 2): weak | SPR KD ([5]; replicate 3): weak | SPR KD ([5]; replicate 4): weak | Kd ([6]; Table 3, wild-type SOCS2 (SBC), 10 °C, read-out: SPR dissociation constant KD): 5.1 ± 0.77 µM
Structure (SMILES): CC[C@H](C)[C@H](NC(=O)[C@H](CC(=O)O)NC(=O)[C@H](CO)NC(=O)[C@@H](NC(=O)[C@H](CCC(N)=O)NC(=O)[C@H](C)NC(=O)[C@H](Cc1ccc(OP(=O)(O)O)cc1)NC(=O)[C@H](Cc1ccccc1)NC(=O)[C@H](CC(=O)O)NC(=O)[C@@H](NC(=O)[C@@H](N)CC(N)=O)[C@@H](C)CC)C(C)C)C(N)=O [GHR_pY487] (H-NIDF[pY]AQVSDI-NH2)

Structure (SMILES): CC[C@H](C)[C@H](NC(=O)[C@@H](NC(=O)[C@H](Cc1ccc(OP(=O)(O)O)cc1)NC(=O)[C@H](C)NC(=O)[C@H](Cc1ccccc1)NC(=O)[C@H](CO)NC(=O)[C@H](C)N)[C@@H](C)O)C(=O)N[C@@H](CC(C)C)C(=O)N[C@@H](CC(=O)O)C(=O)N1CCC[C@H]1C(=O)N[C@@H](CO)C(N)=O [ASFApYTILDPS] (H-ASFA[pY]TILDPS-NH2)
Kd [6, 9]: 21.7 ± 1.49 µM

Structure (SMILES): CC[C@H](C)[C@H](NC(=O)[C@@H](NC(=O)[C@H](Cc1ccc(OP(=O)(O)O)cc1)NC(=O)[C@H](CCC(=O)O)NC(=O)[C@H](Cc1ccccc1)NC(=O)[C@H](CO)NC(=O)[C@H](C)N)[C@@H](C)O)C(=O)N[C@@H](CC(C)C)C(=O)N[C@@H](C)C(=O)N1CCC[C@H]1C(=O)N[C@@H](CO)C(N)=O [ASFEpYTILAPS] (H-ASFE[pY]TILAPS-NH2)
Kd [6, 9]: 18 ± 0.91 µM | Ki [7]: 14.1 ± 1.74 µM

Ki [7]: 3.4 ± 0.25 µM
Structure (SMILES): CC[C@H](C)[C@H](NC(=O)[C@H](CO)NC(=O)[C@@H](NC(=O)[C@H](Cc1ccc(OP(=O)(O)O)cc1)NC(=O)[C@H](CC(=O)O)NC(=O)[C@@H]1CCCN1C(=O)[C@H](C)NC(=O)[C@@H]1CCCN1)[C@@H](C)O)C(=O)N[C@@H](Cc1c[nH]cn1)C(=O)N[C@H](C(=O)N[C@H](C(N)=O)C(C)C)[C@@H](C)CC [PAPDpYTSIHIV]

Ki [7]: 0.9 ± 0.17 µM
Structure (SMILES): CC[C@H](C)[C@H](NC(=O)[C@H](CO)NC(=O)[C@@H](NC(=O)[C@H](Cc1ccc(OP(=O)(O)O)cc1)NC(=O)[C@H](CC(=O)O)NC(=O)[C@@H]1CCCN1C(=O)[C@@H](NC(=O)[C@H](C)N)C(C)C)[C@@H](C)O)C(=O)N[C@@H](Cc1c[nH]cn1)C(=O)N[C@H](C(=O)N[C@H](C(N)=O)C(C)C)[C@@H](C)CC [AVPDpYTSIHIV]

Structure (SMILES): CC[C@H](C)[C@H](NC(=O)[C@H](CO)NC(=O)[C@H](C)NC(=O)[C@H](Cc1ccc(OP(=O)(O)O)cc1)NC(=O)[C@H](CC(=O)O)NC(=O)[C@@H]1CCCN1C(=O)[C@@H](NC(=O)[C@@H]1CCCN1)C(C)C)C(=O)N[C@@H](Cc1c[nH]cn1)C(=O)N[C@H](C(=O)N[C@H](C(N)=O)C(C)C)[C@@H](C)CC [PVPDpYASIHIV] (H-PVPD[pY]ASIHIV-NH2)
Kd [6, 9]: 1 ± 0.09 µM | Ki [7]: 0.5 ± 0.07 µM

Kd [6, 9]: 8.9 ± 1.25 µM | Ki [7]: 6.9 ± 1.39 µM
Structure (SMILES): CC[C@H](C)[C@H](NC(=O)[C@@H](NC(=O)[C@H](Cc1ccc(OP(=O)(O)O)cc1)NC(=O)[C@H](CCC(=O)O)NC(=O)[C@H](Cc1ccccc1)NC(=O)[C@H](CO)NC(=O)[C@H](C)N)[C@@H](C)O)C(=O)N[C@@H](CC(C)C)C(=O)N[C@@H](CC(=O)O)C(=O)N[C@@H](C)C(=O)N[C@@H](CO)C(N)=O [ASFEpYTILDAS] (H-ASFE[pY]TILDAS-NH2)

Structure (SMILES): CC[C@H](C)[C@H](NC(=O)[C@H](Cc1c[nH]cn1)NC(=O)[C@H](C)NC(=O)[C@H](CO)NC(=O)[C@@H](NC(=O)[C@H](Cc1ccc(OP(=O)(O)O)cc1)NC(=O)[C@H](CC(=O)O)NC(=O)[C@@H]1CCCN1C(=O)[C@@H](NC(=O)[C@@H]1CCCN1)C(C)C)[C@@H](C)O)C(=O)N[C@H](C(N)=O)C(C)C [PVPDpYTSAHIV] (H-PVPD[pY]TSAHIV-NH2)
Ki [7]: 3.4 ± 0.66 µM

Structure (SMILES): CC[C@H](C)[C@H](NC(=O)[C@H](C)NC(=O)[C@@H](NC(=O)[C@H](CO)NC(=O)[C@@H](NC(=O)[C@H](Cc1ccc(OP(=O)(O)O)cc1)NC(=O)[C@H](CC(=O)O)NC(=O)[C@@H]1CCCN1C(=O)[C@@H](NC(=O)[C@@H]1CCCN1)C(C)C)[C@@H](C)O)[C@@H](C)CC)C(=O)N[C@H](C(N)=O)C(C)C [PVPDpYTSIAIV] (H-PVPD[pY]TSIAIV-NH2)
Kd [6, 9]: 6.7 ± 0.78 µM

Structure (SMILES): CC(C)C[C@H](NC(=O)[C@H](C)NC(=O)[C@@H](NC(=O)[C@H](Cc1ccc(OP(=O)(O)O)cc1)NC(=O)[C@H](CCC(=O)O)NC(=O)[C@H](Cc1ccccc1)NC(=O)[C@H](CO)NC(=O)[C@H](C)N)[C@@H](C)O)C(=O)N[C@@H](CC(=O)O)C(=O)N1CCC[C@H]1C(=O)N[C@@H](CO)C(N)=O [ASFEpYTALDPS] (H-ASFE[pY]TALDPS-NH2)
Ki [7]: 17.2 ± 0.89 µM

Kd [6, 9]: 9 ± 1.05 µM
Structure (SMILES): CC[C@H](C)[C@H](NC(=O)[C@H](CO)NC(=O)[C@@H](NC(=O)[C@H](Cc1ccc(OP(=O)(O)O)cc1)NC(=O)[C@H](CC(=O)O)NC(=O)[C@@H]1CCCN1C(=O)[C@H](CCCNC(=N)N)NC(=O)[C@@H]1CCCN1)[C@@H](C)O)C(=O)N[C@@H](Cc1c[nH]cn1)C(=O)N[C@H](C(=O)N[C@H](C(N)=O)C(C)C)[C@@H](C)CC [V(−3)R] (H-PRPD[pY]TSIHIV-NH2)

Kd [6, 9]: 3.3 ± 0.13 µM | Ki [7]: 3.3 ± 0.24 µM
Structure (SMILES): CC[C@H](C)[C@H](NC(=O)[C@H](CO)NC(=O)[C@@H](NC(=O)[C@H](Cc1ccc(OP(=O)(O)O)cc1)NC(=O)[C@H](CC(=O)O)NC(=O)[C@@H]1CCCN1C(=O)[C@H](Cc1ccc(O)cc1)NC(=O)[C@@H]1CCCN1)[C@@H](C)O)C(=O)N[C@@H](Cc1c[nH]cn1)C(=O)N[C@H](C(=O)N[C@H](C(N)=O)C(C)C)[C@@H](C)CC [V(−3)Y] (H-PYPD[pY]TSIHIV-NH2)

Kd [6, 9]: 1.9 ± 0.09 µM
Structure (SMILES): CC[C@H](C)[C@H](NC(=O)[C@H](Cc1c[nH]cn1)NC(=O)[C@@H](NC(=O)[C@H](CO)NC(=O)[C@@H](NC(=O)[C@H](Cc1ccc(OP(=O)(O)O)cc1)NC(=O)[C@H](CC(=O)O)NC(=O)[C@@H]1CCCN1C(=O)[C@@H](NC(=O)[C@@H]1CCCN1)C(C)C)[C@@H](C)O)[C@@H](C)CC)C(=O)N[C@@H](C)C(N)=O [PVPDpYTSIHIA]
